# Measured values: US20260166039A1 (SCHRÖDINGER, INC., priority 2022, published 2026)
# Read-outs that look alike come from different tables or passages of the source.
# How the values were obtained:
# [1] = biological target: T1, Wee1 kinase domain (Homo sapiens, UniProt P30291); assay: Wee1 Kinase Biochemical Assay (ADP-Glo); conditions: 15 uM ATP
# T1 construct: Wee1 kinase domain was purchased from Carna (catalog #05-177); purchased Carna 05-177
# Summary of the method: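 Carna Wee1 kinase domain at 1 nM, with 15 uM ATP and 2 ng/mL poly(Lys,Tyr 4:1) substrate in 40 mM Tris-HCl, 20 mM MgCl2, 0.1 mg/mL BSA, 2 mM DTT, run 4 h at 25° C. ADP formation read by ADP-Glo luminescence. Percent inhibition normalised to DMSO and saturating-inhibitor controls.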
# [2] = system: phosphorylation of Cdc2 Y15 (Wee1 substrate) in A427 cells; assay: Phosphorylated Cdc2 MSD Electrochemiluminescence Assay; type: cell-based; conditions: Homo sapiens
# Summary of the method: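 A427 cells (RPMI 1640, 10% FBS) treated 20 h after plating with 3-fold serial compound dilutions, in duplicate, 37 °C, 5% CO2; total incubation 6 h. Lysate Cdc2 pY15 read by MSD electrochemiluminescence sandwich immunoassay; % remaining signal normalised to DMSO (high) and reference Wee1 inhibitor (low) controls.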
# [3] = class symbols, 1 nM Wee1 enzyme, 4 hours at 25° C.
# [4] = A-427, class symbols, read-out: A427 pCDC2 MSD IC50
# T1 sequence (P30291 299-569 limits assumed): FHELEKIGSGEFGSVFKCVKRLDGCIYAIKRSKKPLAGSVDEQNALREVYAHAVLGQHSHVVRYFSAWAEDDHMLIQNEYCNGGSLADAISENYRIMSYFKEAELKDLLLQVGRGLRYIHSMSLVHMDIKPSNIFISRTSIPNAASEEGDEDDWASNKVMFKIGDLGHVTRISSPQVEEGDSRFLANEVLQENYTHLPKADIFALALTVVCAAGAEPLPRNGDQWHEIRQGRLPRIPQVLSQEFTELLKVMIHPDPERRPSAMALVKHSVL
"IC50 [1, 3]","IC50 [2, 4]","IC50 ([1]; Wee1 kinase domain, ADP-Glo)","IC50 ([2]; A-427, pCDC2 MSD)",Compound
< 10 nM,100 to 1000 nM,,,"CN1C[C@@H]2C[C@H]1CN2c1ccc(Nc2ncc3c(n2)N(c2cccc(C4(O)CC4)n2)[C@@H]2CC(C)(C)OC[C@]32C)cc1 [Example 644, 1-(6-((4bR,8aR)-4b,7,7-trimethyl-2-((4-((1S,4S)-5-methyl-2,5-diazabicyclo[2.2.1]heptan-2-yl)phenyl)amino)-4b,7,8,8a-tetrahydropyrano[3′,4′:4,5]pyrrolo[2,3-d]pyrimidin-9(5H)-yl)pyridin-2-yl)cyclopropan-1-ol]"
< 10 nM,100 to 1000 nM,,,"CC1(C)C[C@H]2N(c3cccc(N4CCOC4=O)n3)c3nc(Nc4ccc([C@@H]5CCNC5)cc4)ncc3[C@@]2(C)CO1 (single isomer, unassigned) [Example 607]"
< 10 nM,100 to 1000 nM,,,"CC1(C)C[C@H]2N(c3cccc(N4CCOC4=O)n3)c3nc(Nc4ccc([C@H]5CNC[C@H]5F)cc4)ncc3[C@@]2(C)CO1 [Example 672, 3-(6-((4bR,8aR)-2-((4-((3S,4S)-4-fluoropyrrolidin-3-yl)phenyl)amino)-4b,7,7-trimethyl-4b,7,8,8a-tetrahydropyrano[3′,4′:4,5]pyrrolo[2,3-d]pyrimidin-9(5H)-yl)pyridin-2-yl)oxazolidin-2-one]"
,,< 10 nM,100 to 1000 nM,"CC1(C)C[C@H]2N(c3cccc(N=S(C)(C)=O)n3)c3nc(Nc4cnn(C5COC5)c4)ncc3[C@@]2(C)CO1 (single isomer, unassigned) [Example 223]"
,,< 10 nM,100 to 1000 nM,"CC1(C)C[C@H]2N(c3cccc(N=S(C)(C)=O)n3)c3nc(Nc4ccc([C@@H]5CCCN5)nc4)ncc3[C@@]2(C)CO1 (single isomer, unassigned) [Example 214]"
< 10 nM,100 to 1000 nM,,,"CN1CC[C@@H]2CN(c3ccc(Nc4ncc5c(n4)N(c4cccc(N6CCOC6=O)n4)[C@@H]4CC(C)(C)OC[C@]54C)cc3)C[C@@H]21 [Example 705, 3-(6-((4bR,8aR)-4b,7,7-trimethyl-2-((4-((3aR,6aR)-1-methylhexahydropyrrolo[3,4-b]pyrrol-5(1H)-yl)phenyl)amino)-4b,7,8,8a-tetrahydropyrano[3′,4′:4,5]pyrrolo[2,3-d]pyrimidin-9(5H)-yl)pyridin-2-yl)oxazolidin-2-one]"
< 10 nM,100 to 1000 nM,,,"CN=[S@@](C)(=O)c1cccc(N2c3nc(Nc4ccc(N5CC6(CN(C)C6)C5)cc4)ncc3[C@@]3(C)COC(C)(C)C[C@@H]23)n1 [Example 771, (S)-methyl(methylimino)(6-((4bR,8aR)-4b,7,7-trimethyl-2-((4-(6-methyl-2,6-diazaspiro[3.3]heptan-2-yl)phenyl)amino)-4b,7,8,8a-tetrahydropyrano[3′,4′:4,5]pyrrolo[2,3-d]pyrimidin-9(5H)-yl)pyridin-2-yl)-16-sulfanone]"
< 10 nM,100 to 1000 nM,,,"CN1CC[C@H]2CN(c3ccc(Nc4ncc5c(n4)N(c4cccc(N6CCOC6=O)n4)[C@@H]4CC(C)(C)OC[C@]54C)cc3)C[C@H]21 [Example 684, 3-(6-((4bR,8aR)-4b,7,7-trimethyl-2-((4-((3aS,6aS)-1-methylhexahydropyrrolo[3,4-b]pyrrol-5(1H)-yl)phenyl)amino)-4b,7,8,8a-tetrahydropyrano[3′,4′:4,5]pyrrolo[2,3-d]pyrimidin-9(5H)-yl)pyridin-2-yl)oxazolidin-2-one]"
< 10 nM,100 to 1000 nM,,,"CC1(C)C[C@H]2N(c3cccc(N4CCCC4=O)n3)c3nc(Nc4ccc(O[C@@H]5CCNC5)cc4)ncc3[C@@]2(C)CO1 [Example 616, 1-(6-((4bR,8aR)-4b,7,7-trimethyl-2-((4-(((R)-pyrrolidin-3-yl)oxy)phenyl)amino)-4b,7,8,8a-tetrahydropyrano[3′,4′:4,5]pyrrolo[2,3-d]pyrimidin-9(5H)-yl)pyridin-2-yl)pyrrolidin-2-one]"
< 10 nM,100 to 1000 nM,,,"CN1C[C@H]2C[C@@H]1CN2c1ccc(Nc2ncc3c(n2)N(c2cccc(N=S(C)(C)=O)c2)[C@@H]2CC(C)(C)OC[C@]32C)cc1 [Example 713, dimethyl((3-((4bR,8aR)-4b,7,7-trimethyl-2-((4-((1R,4R)-5-methyl-2,5-diazabicyclo[2.2.1]heptan-2-yl)phenyl)amino)-4b,7,8,8a-tetrahydropyrano[3′,4′:4,5]pyrrolo[2,3-d]pyrimidin-9(5H)-yl)phenyl)imino)-16-sulfanone]"
< 10 nM,100 to 1000 nM,,,"CN1C[C@@H]2C[C@H]1CN2c1ccc(Nc2ncc3c(n2)N(c2cccc(C(C)(C)O)n2)[C@@H]2CC(C)(C)OC[C@]32C)cc1Cl (single isomer, unassigned) [Example 435]"
< 10 nM,100 to 1000 nM,,,"CNCc1cccc(N2c3nc(Nc4ccc([C@H]5CCNC5)cc4)ncc3[C@@]3(C)COC(C)(C)C[C@@H]23)n1 (single isomer, unassigned) [Example 452]"
,,< 10 nM,100 to 1000 nM,"CN1CC(n2cc(Nc3ncc4c(n3)N(c3cccc(N=S(C)(C)=O)n3)[C@@H]3CC(C)(C)OC[C@]43C)cn2)C1 (single isomer, unassigned) [Example 207]"
,,< 10 nM,100 to 1000 nM,"[2H]C([2H])([2H])n1ccc(Nc2ncc3c(n2)N(c2cccc(N=S(C)(C)=O)n2)[C@@H]2CC(C)(C)OC[C@]32C)cc1=O (single isomer, unassigned) [Example 378]"
,,< 10 nM,100 to 1000 nM,"CNCc1cccc(N2c3nc(Nc4ccc([C@@H]5CNC(=O)C5)cc4)ncc3[C@@]3(C)COC(C)(C)C[C@@H]23)n1 (single isomer, unassigned) [Example 63]"
< 10 nM,100 to 1000 nM,,,"CN[C@@H](C)c1cccc(N2c3nc(Nc4ccc(N5CCOCC5)cc4)ncc3[C@@]3(C)COC(C)(C)C[C@@H]23)n1 (single isomer, unassigned) [Example 537]"
< 10 nM,100 to 1000 nM,,,"CC1(C)C[C@H]2N(c3cccc([C@H]4CCNC4)n3)c3nc(Nc4ccc(N5CCOCC5)cc4)ncc3[C@@]2(C)CO1 (single isomer, unassigned) [Example 542]"
< 10 nM,100 to 1000 nM,,,"Cn1cc([C@@H]2C[C@H]2C(=O)Nc2ncc3c(n2)N(c2cccc(N=S(C)(C)=O)n2)[C@@H]2CC(C)(C)OC[C@]32C)cn1 (single isomer, unassigned) [Example 403]"
< 10 nM,100 to 1000 nM,,,"CC1(C)C[C@H]2N(c3cccc(N4CCOC4=O)n3)c3nc(Nc4ccc(O[C@@H]5CCNC5)cc4)ncc3[C@@]2(C)CO1 [Example 622, 3-(6-((4bR,8aR)-4b,7,7-trimethyl-2-((4-(((R)-pyrrolidin-3-yl)oxy)phenyl)amino)-4b,7,8,8a-tetrahydropyrano[3′,4′:4,5]pyrrolo[2,3-d]pyrimidin-9(5H)-yl)pyridin-2-yl)oxazolidin-2-one]"
,,< 10 nM,< 100 nM,"CN1C[C@H]2C[C@@H]1CN2c1ccc(Nc2ncc3c(n2)N(c2cccc(N=S(C)(C)=O)n2)[C@@H]2CC(C)(C)OC[C@]32C)cc1 (single isomer, unassigned) [Example 122]"
< 10 nM,100 to 1000 nM,,,"CC1(C)C[C@H]2N(c3cccc(N4CCCC4=O)n3)c3nc(Nc4ccc(C5CNC5)cc4)ncc3[C@@]2(C)CO1 [Example 662, 1-(6-((4bR,8aR)-2-((4-(azetidin-3-yl)phenyl)amino)-4b,7,7-trimethyl-4b,7,8,8a-tetrahydropyrano[3′,4′:4,5]pyrrolo[2,3-d]pyrimidin-9(5H)-yl)pyridin-2-yl)pyrrolidin-2-one]"
,,< 10 nM,100 to 1000 nM,"CN[C@H]1CCN(c2ccc(Nc3ncc4c(n3)N(c3cccc(N5C(=O)OC[C@@H]5C)n3)[C@@H]3CC(C)(C)OC[C@]43C)cc2)C1 (single isomer, unassigned) [Example 317]"
< 10 nM,100 to 1000 nM,,,"Cc1cc(Nc2ncc3c(n2)N(c2cccc(N4CCCC4=O)n2)[C@@H]2CC(C)(C)OC[C@]32C)ccc1N1C[C@@H]2C[C@H]1CN2C [Example 652, 1-(6-((4bR,8aR)-4b,7,7-trimethyl-2-((3-methyl-4-((1S,4S)-5-methyl-2,5-diazabicyclo[2.2.1]heptan-2-yl)phenyl)amino)-4b,7,8,8a-tetrahydropyrano[3′,4′:4,5]pyrrolo[2,3-d]pyrimidin-9(5H)-yl)pyridin-2-yl)pyrrolidin-2-one]"
,,100 to 1000 nM,100 to 1000 nM,"C[C@H]1COC(=O)N1c1cccc(N2c3nc(Nc4ccc([C@H]5CCN(C)C5)nc4)ncc3[C@]3(C)COC(C)(C)C[C@H]23)n1 (single isomer, unassigned) [Example 262]"
,,< 10 nM,100 to 1000 nM,"CC1(C)C[C@H]2N(c3cccc(N=S(C)(C)=O)n3)c3nc(Nc4ccn([C@@H]5CCOC5)c(=O)c4)ncc3[C@@]2(C)CO1 (single isomer, unassigned) [Example 375]"
< 10 nM,100 to 1000 nM,,,"CN1C[C@H]2C[C@@H]1CN2c1ccc(Nc2ncc3c(n2)N(c2cccc(N4CCOC4=O)n2)[C@@H]2CC(C)(C)OC[C@]32C)cc1 (single isomer, unassigned) [Example 593]"
,,< 10 nM,100 to 1000 nM,"CC1(C)C[C@H]2N(c3cccc(N=S(C)(C)=O)n3)c3nc(Nc4ccc([C@H]5CCCN5)nc4)ncc3[C@@]2(C)CO1 (single isomer, unassigned) [Example 212]"

Compound,"IC50 [1, 3]","IC50 [2, 4]","IC50 ([1]; Wee1 kinase domain, ADP-Glo)","IC50 ([2]; A-427, pCDC2 MSD)"
"CNCc1cccc(N2c3nc(Nc4ccc(N5C6CCC5COC6)c(C)c4)ncc3[C@@]3(C)COC(C)(C)C[C@@H]23)n1 (single isomer, unassigned) [Example 85]",,,< 10 nM,100 to 1000 nM
